Test results taken from ChEMBL document CHEMBL5512632, “Unlocking the potential of 1,4-naphthoquinones: A comprehensive review of their anticancer properties” (Eur J Med Chem, 2024).

Tests used:
MDA-MB-231 [1] = assay: Cytotoxicity against human MDA-MB-231 cells incubated for 48 hrs by XTT assay; type: functional, cell-based; conditions: MDA-MB-231, 48 h
MOLT-3 = assay: Cytotoxicity against human MOLT-3 cells incubated for 48 hrs by XTT assay; type: functional, cell-based; conditions: MOLT-3, 48 h
Calu-1 = assay: Cytotoxicity against human Calu-1 cells incubated for 48 hrs by MTT assay; type: functional, cell-based; conditions: Calu-1, 48 h
SK-MEL-28 = assay: Cytotoxicity against human SK-MEL-28 cells incubated for 48 hrs by MTT assay; type: functional, cell-based; conditions: SK-MEL-28, 48 h
HEC-1-A = assay: Cytotoxicity against human HEC-1-A cells incubated for 48 hrs by MTT assay; type: functional, cell-based
HT-29 [2] = assay: Antiproliferative activity against human HT-29 cells assessed as reduction in cell viability incubated for 24 hrs by MTT assay; type: functional, cell-based; conditions: HT-29, 24 h
OVCAR-3 = assay: Antiproliferative activity against human OVCAR-3 cells assessed as inhibition of cell growth incubated for 48 hrs by MTT reagent based spectrophotometric analysis; type: functional; conditions: OVCAR-3, 48 h
A2780 = assay: Antiproliferative activity against human A2780 cells assessed as inhibition of cell growth incubated for 48 hrs by MTT reagent based spectrophotometric analysis; type: functional; conditions: A2780, 48 h
SK-OV-3 = assay: Antiproliferative activity against human SK-OV-3 cells assessed as inhibition of cell growth incubated for 48 hrs by MTT reagent based spectrophotometric analysis; type: functional; conditions: SK-OV-3, 48 h
HCT-116 [3] = assay: Antiproliferative activity against human HCT-116 cells assessed as inhibition of cell growth incubated for 24 hrs by BrdU incorporation assay; type: functional, cell-based; conditions: HCT-116, 24 h
HT-29 [4] = assay: Antiproliferative activity against human HT-29 cells assessed as inhibition of cell growth incubated for 24 hrs by BrdU incorporation assay; type: functional, cell-based; conditions: HT-29, 24 h
A549 = assay: Cytotoxicity against human A549 cells incubated for 20 hrs by MTT assay; type: functional, cell-based; conditions: A549, 20 h
HCT-116 [5] = assay: Antiproliferative activity against human HCT-116 cells assessed as inhibition of cell growth by MTT assay; type: functional, cell-based
SCC-9 = assay: Cytotoxicity against human SCC-9 cells assessed as inhibition of cell growth incubated for 48 hrs by MTT reagent based spectrophotometric analysis; type: functional; conditions: SCC-9, 48 h
SCC-4 = assay: Cytotoxicity against human SCC-4 cells assessed as inhibition of cell growth incubated for 48 hrs by MTT reagent based spectrophotometric analysis; type: functional; conditions: SCC-4, 48 h
SCC-25 = assay: Cytotoxicity against human SCC-25 cells assessed as inhibition of cell growth incubated for 48 hrs by MTT reagent based spectrophotometric analysis; type: functional; conditions: SCC-25, 48 h
MDA-MB-231 [6] = assay: Growth inhibition of human MDA-MB-231 cells incubated for 48 hrs by Sulforhodamine B reagent based spectrophotometric assay; type: functional
MCF7 [7] = assay: Growth inhibition of human MCF7 cells incubated for 48 hrs by Sulforhodamine B reagent based spectrophotometric assay; type: functional
HeLa [8] = assay: Antiproliferative activity against human HeLa cells assessed as inhibition of cell growth incubated for 24 hrs by sulforhodamine B assay; type: functional, cell-based
HCT-116 [9] = assay: Antiproliferative activity against human HCT-116 cells assessed as inhibition of cell growth incubated for 48 hrs by MTS assay; type: functional, cell-based; conditions: HCT-116, 48 h
MCF7 [10] = assay: Antiproliferative activity against human MCF7 cells assessed as inhibition of cell growth incubated for 48 hrs by MTS assay; type: functional, cell-based; conditions: MCF7, 48 h
HeLa [11] = assay: Antiproliferative activity against human HeLa cells assessed as inhibition of cell growth incubated for 48 hrs by MTS assay; type: functional, cell-based
B16 = assay: Antiproliferative activity against mouse B16 cells assessed as inhibition of cell growth incubated for 48 hrs by MTS assay; type: functional, cell-based; conditions: B16, 48 h
NCI-H1299 = assay: Antiproliferative activity against human NCI-H1299 cells assessed as inhibition of cell growth incubated for 48 hrs by MTS assay; type: functional, cell-based; conditions: NCI-H1299, 48 h
U2OS = assay: Antiproliferative activity against human U2OS cells assessed as inhibition of cell growth incubated for 48 hrs by MTT assay; type: functional, cell-based
HeLa [12] = assay: Antiproliferative activity against human HeLa cells assessed as inhibition of cell growth incubated for 48 hrs by MTT assay; type: functional, cell-based
SAOS-2 = assay: Antiproliferative activity against human SAOS-2 cells assessed as inhibition of cell growth incubated for 48 hrs by MTT assay; type: functional, cell-based; conditions: SAOS-2, 48 h
SH-SY5Y = assay: Antiproliferative activity against human SH-SY5Y cells assessed as inhibition of cell growth incubated for 48 hrs by MTT assay; type: functional, cell-based
Hep 3B2 = assay: Antiproliferative activity against human Hep3B cells assessed as inhibition of cell growth incubated for 24 hrs by MTT assay; type: functional, cell-based
Huh-7 = assay: Antiproliferative activity against human Huh-7 cells assessed as inhibition of cell growth incubated for 24 hrs by MTT assay; type: functional, cell-based; conditions: Huh-7, 24 h
HepG2 = assay: Antiproliferative activity against human HepG2 cells assessed as inhibition of cell growth incubated for 24 hrs by MTT assay; type: functional, cell-based; conditions: HepG2, 24 h

Cc1ccc(NC2=C(Cl)C(=O)c3ccccc3C2=O)cc1
IC50 (MDA-MB-231 [1]): 10.7 µM
IC50 (MOLT-3): 4.3 µM

O=C1C(Cl)=C(NCCN2CCOCC2)C(=O)c2ccccc21
IC50 (Calu-1): 4.39 µM
IC50 (SK-MEL-28): 10.3 µM
IC50 (HEC-1-A): 14.5 µM

CCOC(=O)c1cn(C2=CC(=O)c3ccccc3C2=O)nn1
IC50 (HT-29 [2]): 3.2 µM

O=C1C=C(N(Cc2ccccn2)Cc2ccccn2)C(=O)c2ccccc21
IC50 (OVCAR-3): 6.8 µM
IC50 (A2780): 5.6 µM
IC50 (SK-OV-3): 2.8 µM

O=C1C(Cl)=C(Oc2ccc(-c3oc4cc(O)cc(O)c4c(=O)c3O)cc2O)C(=O)c2ccccc21
IC50 (HCT-116 [3]): 10.3 µM
IC50 (HT-29 [4]): 23.2 µM

O=C1C(Cl)=C(Nc2ccccc2)C(=O)c2ccccc21
IC50 (A549): 5.8 µM

O=C1C=C(Sc2ccc([N+](=O)[O-])cc2)C(=O)c2ccccc21
IC50 (HCT-116 [5]): 5.32 µM

COC(=O)N(Cc1ccccc1)C(C1=C(O)C(=O)c2ccccc2C1=O)c1ccc(Cl)cc1 (stereo unspecified)
IC50 (SCC-9): 56.2 µM
IC50 (SCC-4): 92.8 µM
IC50 (SCC-25): 87.3 µM

O=C1C(Cl)=C(N2CCN(Cc3ccc4c(c3)OCO4)CC2)C(=O)c2ccccc21
GI50 (MDA-MB-231 [6]): 5 µM
GI50 (MCF7 [7]): 5.8 µM

O=C1C(Cl)=C(Nc2ccc(O)cc2)C(=O)c2ccccc21
IC50 (HeLa [8]): 3.2 µM

CN(C)C(=S)SCC1=C(CSC(=S)N(C)C)C(=O)c2ccccc2C1=O
IC50 (HCT-116 [9]): 0.088 µM
IC50 (MCF7 [10]): 0.069 µM
IC50 (HeLa [11]): 0.122 µM
IC50 (B16): 0.104 µM
IC50 (NCI-H1299): 0.109 µM

CC(=O)N[C@@H](CSC1=CC(=O)c2ccccc2C1=O)C(=O)O
IC50 (U2OS): 1.81 µM
IC50 (HeLa [12]): 0.54 µM
IC50 (SAOS-2): 1.67 µM
IC50 (SH-SY5Y): 0.87 µM

CCCCCCCC[S+]([O-])C1=CC(=O)c2ccccc2C1=O (stereo unspecified)
IC50 (Hep 3B2): 0.96 µM
IC50 (Huh-7): 1.96 µM
IC50 (HepG2): 8.56 µM
